# Activity calls are given as the source filed them. No cut-off for these calls is given here.
# Experiments:
# Staphylococcus aureus [1] = experiment: Antibacterial activity against Staphylococcus aureus NCTC 13616 assessed as reduction in bacterial growth incubated for 20 hrs by microplate reader method; assay type: functional
# Staphylococcus aureus [2] = experiment: Antibacterial activity against Staphylococcus aureus ATCC 9144 assessed as reduction in bacterial growth incubated for 20 hrs by microplate reader method; assay type: functional
# Staphylococcus aureus [3] = experiment: Antibacterial activity against Staphylococcus aureus USA 300 assessed as reduction in bacterial growth incubated for 20 hrs by microplate reader method; assay type: functional
# Staphylococcus aureus [4] = experiment: Antibacterial activity against Staphylococcus aureus 1199B assessed as reduction in bacterial growth incubated for 20 hrs by microplate reader method; assay type: functional
# Enterococcus faecalis [5] = experiment: Antibacterial activity against Vanomycin-sensitive Enterococcus faecalis NCTC 775 assessed as reduction in bacterial growth incubated for 20 hrs by microplate reader method; assay type: functional
# Enterococcus faecalis [6] = experiment: Antibacterial activity against Vanomycin-resistant Enterococcus faecalis NCTC 12201 assessed as reduction in bacterial growth incubated for 20 hrs by microplate reader method; assay type: functional
# Enterococcus faecium = experiment: Antibacterial activity against Vanomycin-resistant Enterococcus faecium NCTC 12204 assessed as reduction in bacterial growth incubated for 20 hrs by microplate reader method; assay type: functional
# Acinetobacter baumannii [7] = experiment: Antibacterial activity against Acinetobacter baumannii AYE assessed as reduction in bacterial growth incubated for 20 hrs in presence of PMBN by microplate reader method; assay type: functional, organism-based
# Acinetobacter baumannii [8] = experiment: Antibacterial activity against Acinetobacter baumannii ATCC 17978 assessed as reduction in bacterial growth incubated for 20 hrs in presence of PMBN by microplate reader method; assay type: functional, organism-based
# Pseudomonas aeruginosa [9] = experiment: Antibacterial activity against Pseudomonas aeruginosa PAO1 assessed as reduction in bacterial growth incubated for 20 hrs in presence of PMBN by microplate reader method; assay type: functional
# Pseudomonas aeruginosa [10] = experiment: Antibacterial activity against Pseudomonas aeruginosa NCTC 13437 assessed as reduction in bacterial growth incubated for 20 hrs in presence of PMBN by microplate reader method; assay type: functional, organism-based
# Escherichia coli = experiment: Antibacterial activity against Escherichia coli NCTC 12923 assessed as reduction in bacterial growth incubated for 20 hrs in presence of PMBN by microplate reader method; assay type: functional, organism-based
SMILES,MIC (Staphylococcus aureus [1]) [µg/mL],MIC (Staphylococcus aureus [2]) [µg/mL],MIC (Staphylococcus aureus [3]) [µg/mL],MIC (Staphylococcus aureus [4]) [µg/mL],MIC (Enterococcus faecalis [5]) [µg/mL],MIC (Enterococcus faecalis [6]) [µg/mL],MIC (Enterococcus faecium) [µg/mL],Activity (Acinetobacter baumannii [7]),Activity (Acinetobacter baumannii [8]),MIC (Pseudomonas aeruginosa [9]) [µg/mL],Activity (Pseudomonas aeruginosa [10]),Activity (Escherichia coli),Activity (Pseudomonas aeruginosa [9])
O=C(NC[C@H]1CN(c2ccc(N3CCOCC3)c(F)c2)C(=O)O1)c1cnc(Br)s1,16,16,32,32,32,16,8,inactive,inactive,16,inactive,inactive,
CC(=O)NC[C@H]1CN(c2ccc(N3CCOCC3)c(F)c2)C(=O)O1 [LINEZOLID],,,,,,,2,,,,,,
Cc1ncsc1C(=O)NC[C@H]1CN(c2ccc(N3CCOCC3)c(F)c2)C(=O)O1,16,16,16,32,32,16,16,inactive,inactive,16,inactive,inactive,
O=C(NC[C@H]1CN(c2ccc(N3CCOCC3)c(F)c2)C(=O)O1)c1cc[nH]c1,64,32,32,64,32,32,16,,,,,,
O=C(NC[C@H]1CN(c2ccc(N3CCOCC3)c(F)c2)C(=O)O1)[C@H]1CCNC1,> 128,> 128,> 128,> 128,> 128,> 128,> 128,inactive,inactive,,inactive,inactive,inactive
NCCCC(=O)NC[C@H]1CN(c2ccc(N3CCOCC3)c(F)c2)C(=O)O1,> 128,> 128,> 128,> 128,> 128,> 128,64,,,,,,
O=C(NC[C@H]1CN(c2ccc(N3CCOCC3)c(F)c2)C(=O)O1)c1ccsc1,16,16,16,8,16,8,8,,,,,,
O=C(Cc1cccc2ccccc12)NC[C@H]1CN(c2ccc(N3CCOCC3)c(F)c2)C(=O)O1,> 128,> 128,> 128,> 128,> 128,32,64,,,,,,
O=C(NC[C@H]1CN(c2ccc(N3CCOCC3)c(F)c2)C(=O)O1)c1cc2ccccc2[nH]1,> 128,> 128,> 128,> 128,> 128,> 128,> 128,,,,,,
Cc1nc(Br)sc1C(=O)NC[C@H]1CN(c2ccc(N3CCOCC3)c(F)c2)C(=O)O1,16,16,16,16,32,32,32,,,,,,
O=C(NC[C@H]1CN(c2ccc(N3CCOCC3)c(F)c2)C(=O)O1)c1cc2ncccc2o1,16,16,16,16,16,8,16,,,,,,
Cn1cc([N+](=O)[O-])nc1C(=O)NC[C@H]1CN(c2ccc(N3CCOCC3)c(F)c2)C(=O)O1,> 128,> 128,> 128,> 128,> 128,> 128,> 128,,,,,,
CC(C)C(=O)NC[C@H]1CN(c2ccc(N3CCOCC3)c(F)c2)C(=O)O1,16,16,16,8,16,8,8,,,,,,
O=C(NC[C@H]1CN(c2ccc(N3CCOCC3)c(F)c2)C(=O)O1)C1CC1,8,8,8,8,8,8,8,,,,,,
O=C(NC[C@H]1CN(c2ccc(N3CCOCC3)c(F)c2)C(=O)O1)c1cncs1,16,16,16,16,16,16,16,inactive,inactive,16,inactive,inactive,

# Source: ChEMBL document CHEMBL5055653, “Synthesis, microbiological evaluation and structure activity relationship analysis of linezolid analogues with different C5-acylamino substituents” (2021)
